Assay: Thermo Scientific Acclaim RSLC 120 C18, 100 × 2.1 mm, 2.2 µm, 30 °C; A: 90% water + 10% methanol + 0.01% formic acid + 5 mM ammonium formate; B: methanol + 0.01% formic acid + 5 mM ammonium formate; gradient (min/%B) 0.1/1 3/39 14/99.9 16/99.9
Conditions: stereoisomer not certain

| LC retention time | SMILES |
| --- | --- |
| 7.47 min | Cc1ccc(C(CCN(C)C)c2ccccc2)cc1 (stereo unspecified) |
| 6.66 min | Cc1ccc(C(=CCN2CCCC2)c2cccc(C=CC(=O)O)n2)cc1 |
| 3.74 min | Nc1nc2ccccc2[nH]1 |
| 11.2 min | COC1C(OC(N)=O)C(O)C(Oc2ccc3c(O)c(NC(=O)c4ccc(O)c(CC=C(C)C)c4)c(=O)oc3c2C)OC1(C)C (stereo unspecified) |
| 7.19 min | c1ccc(CN(CCN2CCCC2)c2ccccc2)cc1 |
| 5.44 min | CON=C(C(=O)NC1C(=O)N2C(C(=O)O)=C(CSC(=O)c3ccco3)CSC12)c1csc(N)n1 (stereo unspecified) |
| 10.7 min | CC(C)Cc1ccc(C(C)C(=O)O)cc1 (stereo unspecified) |
| 3.96 min | Cc1c(NC=O)c(=O)n(-c2ccccc2)n1C |
| 7.18 min | COc1ccc(C2Sc3ccccc3N(CCN(C)C)C(=O)C2OC(C)=O)cc1 (stereo unspecified) |
| 3.95 min | Cc1ccnc(NS(=O)(=O)c2ccc(N)cc2)n1 |
| 5.28 min | CCCCN(CCCC)CCCC |
| 4.94 min | CN(CCO)c1nc2c(c(=O)n(C)c(=O)n2C)n1C |
| 4.99 min | CN1C2CCCC1CC(NC(=O)c1nn(C)c3ccccc13)C2 (stereo unspecified) |
| 4.57 min | NC(N)=NCC1COc2ccccc2O1 (stereo unspecified) |
| 6.43 min | CCCCNc1ccc(C(=O)OCCN(C)C)cc1 |
| 8.17 min | CNc1nc(NC(C)C)nc(SC)n1 |
| 4.88 min | CC(C)(C)NCC(O)COc1nsnc1N1CCOCC1 (stereo unspecified) |
| 5.21 min | COc1ccccc1OCC(O)COC(N)=O (stereo unspecified) |
| 9.49 min | CCCOc1ccc(S(=O)(=O)N2CCN(CCO)CC2)cc1-c1nc2c(CCC)cn(CC)c2c(=O)[nH]1 |
| 4.33 min | CC[N+]1([O-])CCCC1CNC(=O)c1cc(S(=O)(=O)CC)c(N)cc1OC (stereo unspecified) |

| LC retention time | SMILES |
| --- | --- |
| 5.99 min | CN1CCC(=C2c3ccccc3CCc3cccnc32)CC1 |
| 4.73 min | CCC(CC)OC1C=C(C(=O)O)CC(N)C1NC(C)=O (stereo unspecified) |
| 9.44 min | CCCCC1=NC2(CCCC2)C(=O)N1Cc1ccc(-c2ccccc2-c2nn[nH]n2)cc1 |
| 3.14 min | CNC(=C[N+](=O)[O-])NCCSCc1ccc(CN(C)C)o1 |
| 6.28 min | CC(=O)Oc1c(C)cc(OCC(O)CNC(C)C)c(C)c1C (stereo unspecified) |
| 4.11 min | CC(=O)Nc1ccc(S(=O)(=O)Nc2ncccn2)cc1 |
| 3.93 min | CC(C)NCC(O)COc1ccc(CC(=O)O)cc1 (stereo unspecified) |
| 4.93 min | COCCc1ccc(OCC(O)CNC(C)C)cc1 (stereo unspecified) |
| 8.08 min | CNCCCC12CCC(c3ccccc31)c1ccccc12 |
| 4.03 min | NC(=O)c1cc[n+](CC2=C(C(=O)[O-])N3C(=O)C(NC(=O)Cc4cccs4)C3SC2)cc1 (stereo unspecified) |
| 6.76 min | CC(C)(C)NCC(O)COc1cccc2c1SCCC2 (stereo unspecified) |
| 3.28 min | Cn1cnc2c1c(=O)[nH]c(=O)n2C |
| 3.8 min | Nc1ccc(S(=O)(=O)Nc2ccccn2)cc1 |
| 11.5 min | CCCc1nn(C)c2c(=O)[nH]c(-c3cc(S(=O)(=O)N4CCN(Cc5ccccc5)CC4)ccc3OCC)nc12 |
| 4.88 min | CC1(C)CC1C(=O)NC(=CCCCCSCC(N)C(=O)O)C(=O)O (stereo unspecified) |
| 5.59 min | Cc1cccc(C)c1OCC(C)N (stereo unspecified) |
| 7.06 min | CCn1cc(C(=O)O)c(=O)c2ccc(C)nc21 |
| 9.41 min | CCCC(C(=O)OCCN(CC)CC)(c1ccccc1)c1ccccc1 |
| 4.24 min | COCCOc1c(OC)cc(Cc2cnc(N)nc2N)cc1OC |
| 3.76 min | CON=C(C(=O)NC1C(=O)N2C(C(=O)[O-])=C(C[n+]3cccc4c3CCCC4)CSC12)c1csc(N)n1 (stereo unspecified) |

| LC retention time | SMILES |
| --- | --- |
| 6.58 min | CC(C)(C)NCC(O)COc1ccc(NC(=O)NC2CCCCC2)cc1 (stereo unspecified) |
| 7.94 min | O=C1C(CCS(=O)c2ccccc2)C(=O)N(c2ccccc2)N1c1ccccc1 (stereo unspecified) |
| 3.63 min | Nc1ccc(S(=O)(=O)Nc2nccs2)cc1 |
| 8 min | CCC1OC(=O)C(C)C(OC2CC(C)(OC)C(O)C(C)O2)C(C)C(OC2OC(C)CC(N(C)C)C2O)C(C)(O)CC(C)C(=O)C(C)C(O)C1(C)O (stereo unspecified) |
| 5.78 min | O=C1CC2(CCCC2)CC(=O)N1CCCCN1CCN(c2ncccn2)CC1 |
| 5.39 min | CCCN1CCCCC1C(=O)Nc1c(C)cccc1C (stereo unspecified) |
| 8.15 min | CN1CCN(CCCN2c3ccccc3Sc3ccc(S(=O)(=O)N(C)C)cc32)CC1 |
| 7.54 min | CNCCOC(c1ccccc1)c1ccccc1C (stereo unspecified) |
| 3.14 min | Nc1ncnc2c1ncn2C1OC(CO)C(O)C1O (stereo unspecified) |
| 6.01 min | CC1CCCC(C)N1CCCC(O)(c1ccccc1)c1ccccn1 (stereo unspecified) |
| 6.59 min | CC(C)NCC(O)COc1cccc2ccccc12 (stereo unspecified) |
| 11.6 min | Cc1cccc(Nc2ccccc2C(=O)O)c1C |
| 7.69 min | CN(C)CCCN1c2ccccc2Sc2ccccc21 |
| 3.38 min | CC(C)(ON=C(C(=O)NC1C(=O)N2C(C(=O)[O-])=C(C[n+]3ccccc3)CSC12)c1csc(N)n1)C(=O)O (stereo unspecified) |
| 5.93 min | CCOc1ccc(NC(C)=O)cc1 |
| 5.06 min | CC(=O)N(C)N(C(=O)C(=O)N(C)C)c1ccccc1 |
| 8.24 min | COc1ccc(-c2oc3c(CC=C(C)C)c(OC4OC(CO)C(O)C(O)C4O)cc(O)c3c(=O)c2OC2OC(C)C(O)C(O)C2O)cc1 (stereo unspecified) |
| 1.26 min | CNC1C(OC2C(OC3C(O)C(O)C(N=C(N)N)C(O)C3N=C(N)N)OC(C)C2(O)CO)OC(CO)C(O)C1O (stereo unspecified) |

| SMILES | LC retention time |
| --- | --- |
| COC(C)C(O)(C(=O)OCC1=CC[N+]2([O-])CCC(O)C12)C(C)C (stereo unspecified) | 3.49 min |
| CCC1CN2CCc3c([nH]c4cccc(OC)c34)C2CC1C(=COC)C(=O)OC (stereo unspecified) | 6.23 min |
| CCCCCc1cc(O)c2c(c1)OC(C)(C)C1CCC(C)=CC21 (stereo unspecified) | 14 min |
| CCN(CC)CCOC(=O)C(O)(c1ccccc1)c1ccccc1 | 6.08 min |
| CCOP(=S)(OCC)Oc1ccc(S(C)=O)cc1 (stereo unspecified) | 8.27 min |
| CC(N)Cc1c[nH]c2ccccc12 (stereo unspecified) | 4.44 min |
| CCNP(=S)(OC)OC(C)=CC(=O)OC(C)C (stereo unspecified) | 9.79 min |
| CCOC(=O)C1(c2ccccc2)CCC=CC1N(C)C (stereo unspecified) | 5.1 min |
| CNC(=O)N(C)c1nc2ccccc2s1 | 8.26 min |
| Cc1c(C(=O)c2cccc3ccccc23)c2cccc3c2n1C(CN1CCOCC1)CO3 (stereo unspecified) | 10.9 min |
| CC(C)CC(C)Nc1ccc(Nc2ccccc2)cc1 (stereo unspecified) | 9.92 min |
| Cc1ccccc1-n1c(C)nc2ccccc2c1=O | 7.83 min |
| CCNC1(c2cccc(OC)c2)CCCCC1=O (stereo unspecified) | 4.93 min |
| CN1CSC(=S)N(C)C1 | 3.97 min |
| Cc1ccc(C(=O)c2cn(CCCCCO)c3ccccc23)c2ccccc12 | 10.6 min |
| CC(=O)Oc1cccc2[nH]cc(CCN(C(C)C)C(C)C)c12 | 4.88 min |
| COc1cc(CCN)c(OC)cc1C | 5.34 min |
| CCCCc1c(C)nc(NCC)[nH]c1=O | 8 min |
| CC(=O)OC1CN2CCC1CC2 (stereo unspecified) | 4.87 min |
| CC(C)CC(CN)CC(=O)O (stereo unspecified) | 3.88 min |
| COC(=O)c1ccccc1CS(=O)(=O)NC(=O)Nc1nc(OC)cc(OC)n1 | 8.77 min |
| CN1C2CCC1CC(OC(=O)C(CO)c1ccccc1)C2 (stereo unspecified) | 4.36 min |
| NC(=O)N=C(N)N | 1.31 min |
| CCC(C(=O)c1ccc2c(c1)OCO2)N(C)C (stereo unspecified) | 4.38 min |
| NCC1(CC(=O)O)CCCCC1 | 3.78 min |
| CNC(C)Cc1ccc(O)c(OC)c1 (stereo unspecified) | 3.19 min |
| CN=CNc1ccc(C)cc1C | 4.44 min |

| SMILES | LC retention time |
| --- | --- |
| CCCN(CCC)c1c([N+](=O)[O-])cc(S(N)(=O)=O)cc1[N+](=O)[O-] | 10.3 min |
| CCCCCn1cc(C(=O)Oc2cccc3cccnc23)c2ccccc21 | 11.9 min |
| CNC(=O)ON=C(CSC)C(C)(C)C | 7.8 min |
| Cc1ccc(N)c(C)c1 | 5.04 min |
| CCCCCn1c2ccccc2c2cc(C(=O)c3cccc4ccccc34)ccc21 | 14.2 min |
| CSc1nc(N=[N+]=[N-])nc(NC(C)C)n1 | 9.71 min |
| COP(=S)(OC)Oc1ccc(SC)c(C)c1 | 11 min |
| COc1ccc2c3c1OC1C(=O)CCC4(O)C(C2)NCCC314 (stereo unspecified) | 3.71 min |
| CCCCCn1nc(C(=O)NC(C)(C)c2ccccc2)c2ccccc21 | 12.5 min |
| COc1nn(CSP(=S)(OC)OC)c(=O)s1 | 8.7 min |
| COc1cccc(C2(O)CCCCC2C[N+](C)(C)[O-])c1 (stereo unspecified) | 5.24 min |
| COP(=S)(OC)Oc1ccc(S(C)=O)c(C)c1 (stereo unspecified) | 7.28 min |
| COc1ccc(Cc2nccc3cc(OC)c(OC)cc23)cc1OC | 6.27 min |
| CCN(CC)C(=O)NC1C=C2c3cccc4[nH]cc(c34)CC2N(C)C1 (stereo unspecified) | 5.92 min |
| Nc1ccc([N+](=O)[O-])cc1C(=O)c1ccccc1 | 8.99 min |
| CC(=O)OC1CCC2C3CCC4CC(=O)C=C(C)C4(C)C3CCC12C (stereo unspecified) | 12.5 min |
| CCNc1nc(NC(C)C)[nH]c(=O)n1 | 5.03 min |
| CC(C)(C)c1ccc(CCOc2ncnc3ccccc23)cc1 | 13.7 min |
| CCOC(=O)CCN(Cc1ccccc1)SN(C)C(=O)ON=C(C)SC | 10.8 min |
| COc1ccc(C(=O)c2cn(CCCCC(=O)O)c3ccccc23)cc1 | 8.81 min |
| CN1CCC23c4c5ccc(O)c4OC2CCCC3C1C5 (stereo unspecified) | 3.84 min |
| CCS(=O)(=O)Cc1ccccc1OC(=O)NC | 4.63 min |
| O=C(Nc1ccccc1)Nc1cnns1 | 7.17 min |
| CN(C)CC1CCCCC1(O)c1cccc(O)c1 (stereo unspecified) | 4.06 min |
| CNC(=O)Oc1cccc(C)c1 | 6.59 min |
| CC=CCC1=C(C)C(OC(=O)C2C(C=C(C)C)C2(C)C)CC1=O (stereo unspecified) | 12.9 min |

— the RepoRT retention time repository (doi:10.1016/j.jhazmat.2019.121712)
